We go through 23 compounds from patent publication US20040266802A1, “Tricyclic analgesics” (priority 1999, published 2004).

Counter-ions that a name gives are not always drawn. Like-named read-outs stand apart in the source and are kept apart here.

For data set [1], the system named is Na+ channels. As to the kind of experiment: 22Na+ influx into SK-N-SH neuroblastoma cells under veratridine stimulation. The class given is cell-based.
In data set [2] the test system is Chronic Hyperalgesia Induced by PGE2 in Rats. Description: Analgesic activity on chronic hyperalgesia induced by PGE2 in rats (Randall and Selitto test). The data set is classed as in vivo. The following applies: Rattus norvegicus, sc, 0.5 h; Sprague-Dawley rats, 10 mg/kg s.c., 30 min before measuring the pain threshold, compared with vehicle controls. As to the method:
Analgesic Activity on Chronic Hyperalgesia Induced by PGE2 in Rats
The test consists in determining the analgesic effect of the test compound in rats by the Randall and Selitto test, in which chronic hyperalgesia has been triggered by intraplantar injection of PGE2 over 4 days into a leg, according to a protocol adapted from Nakamura-Craig et al (Pain, 63: 33-37. 1995).
The study is carried out on batches of 120-140 g Sprague-Dawley rats to which 100 ng of PGE2 is administered in a volume of 100 μl by the intraplantar route, for 4 consecutive days twice a day; this causes chronic hyperalgesia in the leg from the 5th day, for at least one week. On the day of the test, in the morning, the threshold of reaction to pain is checked by the Randall and Selitto test, and animals whose threshold is ψ100 arbitrarily defined units are selected. In the afternoon, the measurement is repeated after prior administration by the s.c. route of a solution of the test compound; this administration is carried out 30 min before measuring the pain threshold. For each batch, the analgesic activity (%) is calculated from the means of the thresholds measured before and after treatment, as compared with that of the control animals, who received only the vehicle.

The target of data set [3] is Na+ channel. Conditions: rat cerebral cortex synaptosomes, 10 nM [3H]batrachotoxin, 90 min at 25° C.; read-out: [3H] BTX assay: Na+ channel binding Ki.
The mark [4] stands for this setting: human SK-N-SH cells, veratridine-induced influx, 10 min at 37° C.; read-out: 22Na influx IC50.

Consider `O=C1c2ccccc2CCC12CCNCC2` (as salt: hydrochloride), for which the melting point – broadly, the temperature of the solid-liquid transition – is 235 °C.

`O=C1c2ccccc2CCC12CCN(CCc1ccccc1)CC2` (as salt: hydrochloride) came in with a melting point greater than 275 °C.

Regarding `O=C1c2ccccc2CCC12CCN(CC1CC1)CC2` (as salt: hydrochloride) [Example 2, 1′-cyclopropylmethyl-3,4-Dihydro-1-oxospiro[naphthalene-2(1H),4′-piperidine]], the melting point worked out at 243 °C.

The compound `O=C1c2ccccc2CCC12CCN(CC1CCC1)CC2` (as salt: hydrochloride) [Example 3, 1′-cyclobutylmethyl-3,4-Dihydro-1-oxospiro[naphthalene-2(1H),4′-piperidine]] came in with a melting point of 235 °C.

The compound `O=C1c2ccccc2CCC12CCN(CC1CCCCC1)CC2` (as salt: hydrochloride) [Example 4, 1′-cyclohexylmethyl-3,4-Dihydro-1-oxospiro[naphthalene-2(1H),4′-piperidine]] came in with a melting point of 265 °C.

With `O=C1c2ccccc2CCC12CCN(CCC1CC1)CC2` (as salt: hydrochloride) [Example 6, 1′-cyclopropylethyl-3,4-Dihydro-1-oxospiro[naphthalene-2(1H),4′-piperidine]], the melting point worked out at 244 °C.

`O=C1c2ccccc2CCC12CCN(C/C=C/c1ccccc1)CC2` (as salt: hydrochloride) [Example 7, 1′-cinnamyl-3,4-Dihydro-1-oxospiro[naphthalene-2(1H),4′-piperidine]] had a melting point of 228 °C.

With `O=C1c2ccccc2CCC12CCN(CCC(c1ccccc1)c1ccccc1)CC2` (as salt: hydrochloride) [Example 8, 1′-(3,3-diphenylpropyl)-3,4-Dihydro-1-oxospiro[naphthalene-2(11H),4′-piperidine]], the melting point came to 257 °C.

Turning to `Cc1cc(C)c2c(c1)C(=O)C1(CC2)CCN(CC2CC2)CC1` (as salt: hydrochloride) [Example 9, 1′-(cyclopropylmethyl)-3,4-Dihydro-5,7-dimethyl-1-oxospiro[naphthalene-2(1H),4′-piperidine]], the melting point was greater than 260 °C.

Regarding `COc1ccc2c(c1)CCC1(CCN(CC3CC3)CC1)C2=O` (as salt: hydrochloride) [Example 10, 1′-(cyclopropylmethyl)-3,4-Dihydro-6-methoxy-1-oxospiro[naphthalene-2(1H),4′-piperidine]], the melting point was greater than 255 °C.

`COc1cccc2c1CCC1(CCN(CC3CC3)CC1)C2=O` (as salt: hydrochloride) [Example 11, 1′-(cyclopropylmethyl)-3,4-Dihydro-5-methoxy-1-oxospiro[naphthalene-2(1H),4′-piperidine]]: the melting point is 244 °C.

For the compound `O=C1c2ccccc2CCC12CCN(CC1CC1)CC2` [Example 2, 1′-cyclopropylmethyl-3,4-Dihydro-1-oxospiro[naphthalene-2(1H),4′-piperidine]], the IC50 (as a rule, the concentration that inhibits the measured activity by half) in data set [1] (setting [4]) was 10700 nM. In addition, at 10 mg/kg the inhibition in vivo in data set [2] was 49%.

As for `O=C1c2ccccc2CCC12CCN(CCC1CC1)CC2` [Example 6, 1′-cyclopropylethyl-3,4-Dihydro-1-oxospiro[naphthalene-2(1H),4′-piperidine]], the IC50 in data set [1] (setting [4]) worked out at 3400 nM. Further, in data set [2], 10 mg/kg produced 67% inhibition in vivo.

Consider `O=C1c2ccccc2CCC12CCN(C/C=C/c1ccccc1)CC2` [Example 7, 1′-cinnamyl-3,4-Dihydro-1-oxospiro[naphthalene-2(1H),4′-piperidine]], for which, in data set [1] (setting [4]), the 50% inhibitory concentration (IC50) was determined as 940 nM. Also, the inhibition in vivo (commonly the change of the read-out against control, counted positive when it falls) at 10 mg/kg in data set [2] stood at 57%.

`O=C1c2ccccc2CCC12CCN(CCC(c1ccccc1)c1ccccc1)CC2` [Example 8, 1′-(3,3-diphenylpropyl)-3,4-Dihydro-1-oxospiro[naphthalene-2(11H),4′-piperidine]]: in data set [1] (setting [4]), the IC50 came out at 970 nM. Moreover, the inhibition in vivo at 10 mg/kg in data set [2] was 47%.

As to `COc1ccc2c(c1)CCC1(CCN(CC3CC3)CC1)C2=O` [Example 10, 1′-(cyclopropylmethyl)-3,4-Dihydro-6-methoxy-1-oxospiro[naphthalene-2(1H),4′-piperidine]], in data set [1] (setting [4]), the concentration for half-maximal inhibition (IC50) came out at 30000 nM. Moreover, testing at 10 mg/kg in data set [2] gave an inhibition in vivo of 100%.

`O=C1c2ccccc2CCC12CCN(CCCc1ccccc1)CC2` [Example 33]: the IC50 in data set [1] (read-out: 22Na influx IC50; human SK-N-SH cells, veratridine-induced influx, 10 min at 37° C.) is 1200 nM. The compound also showed an inhibition in vivo at 10 mg/kg in data set [2] of 81%. Also, the Ki (as a rule, a dissociation constant, usually derived from enzyme kinetics or from competition with a known ligand) in data set [3] came out at 291 nM.

In the case of `COc1cccc2c1CCC1(CCN(CC3CCC3)CC1)C2=O` [Example 36], in data set [1] (setting [4]), the IC50 worked out at 3400 nM. This compound gave an inhibition in vivo at 10 mg/kg in data set [2] of 51%. Moreover, the inhibition constant Ki in data set [3] amounted to 475 nM.

On to `COc1ccc2c(c1)CCC1(CCN(CCC3CC3)CC1)C2=O` [Example 42], for which, in data set [1] (setting [4]), the half-inhibitory concentration (IC50) came out at 4300 nM. The same compound came in with an inhibition in vivo at 10 mg/kg in data set [2] of 46%.

As for `COc1ccc2c(c1)CCC1(CCN(CC3CCC3)CC1)C2=O` [Example 43], the half-inhibitory concentration (IC50) in data set [1] (setting [4]) amounted to 6000 nM. In addition, at 10 mg/kg the inhibition in vivo in data set [2] was 39%.

For `COc1ccc2c(c1)CCC1(CCN(CCCc3ccccc3)CC1)C2=O` [Example 47], the IC50 in data set [1] (setting [4]) turned out to be 600 nM. In addition, testing at 10 mg/kg in data set [2] gave an inhibition in vivo of 66%.

Turning to `COc1ccc2c(c1)C(=O)C1(CC2)CCN(CCC2CC2)CC1` [Example 49], the IC50 in data set [1] (setting [4]) was determined as 7600 nM. At 10 mg/kg the inhibition in vivo in data set [2] was 38%. Also, the Ki in data set [3] stood at 2180 nM.

The compound `COc1ccc2c(c1)CCC1(CCNCC1)C2=O` [Example 70, 3.4-Dihydro-6-methoxy-1-oxospiro[naphthalene-2(1H),4′-piperidine]] came in with an inhibition in vivo at 10 mg/kg in data set [2] of 46%.
